# Laboratory results taken from patent US20110152166A1, “METHOD OF MODULATION OF PROTEIN PHOSPHORYLATION-DEPENDENT CONFORMATIONAL TRANSITIONS WITH LOW MOLECULAR WEIGHT COMPOUNDS” (priority 2006, published 2011).
# Legend:
# GST-S6K11-365 = assay: Surface plasmon resonance, S6K1 binding to tail peptides; set-up: species or system rat; details: K144N versus wt
# Description: FIG. 13. The tail phosphate synergistically enhances the ability of the HM phosphate to activate S6K, dependent on the tail phosphate-binding site. (A) The kinase activity of purified kinase domain of S6K1 (S6K11-364), pre-phosphorylated by PDK1 in the activation loop, was determined in the presence of increasing concentrations of synthetic S6K1 tail peptide (residues 366-395) that was either non-phosphorylated (S371/T389), phosphorylated at Ser371 (pS371/T389) or Thr389 (5371/pT389) or phosphorylated at both sites (pS371/pT389). (B) The kinase activity of S6K11-364 and S6K11-364K144N, either pre-phosphorylated or not by PDK1, was determined in the absence or presence of 90 μM S371/pT389 or pS371/pT389. (C) pS371/pT389 S6K1 tail peptide was biotinylated and used to coat streptavidin Sensor Chips. The chips were thereafter analyzed for binding to purified GST-S6K11-365 or GST-56K11-365K144N. (A-C) Experiments were repeated at least 3 times and activity data (expressed as percent) are means±SD.
# Sixty 146 cm^2 dishes with COST cells were co-transfected with pEBG-2T-S6K1-365 and pCMV5-myc-PDK1 (ratio 3:1) using calcium phosphate precipitation or with pEBG-2T-PKCζ and pCMV5-myc-PDK1 (ratio 3:1) using Fugene HD according to the manufacturers Instructions. Two days after transfection, the cells were harvested in lysis buffer as described above. […]
# [1] = target: T1, Thr221-phosphorylated S6K11-364 (Rattus norvegicus, UniProt P67999); assay: S6K1 in vitro reconstitution kinase assay with tail peptides; type: biochemical
# T1 construct: Purified HA-S6K1-364 was incubated with synthetic S6K1 (rat) tail peptides; made in house; host or cells: COS7, co-transfected with myc-PDK1; anti-HA immunoprecipitate
# Source text: We established an in vitro reconstitution assay that could test a direct activation of the AGC kinase domain by the tail phosphate and characterize its cooperation with the HM and activation loop phosphates. The deletion mutant S6K11-364, which contains the kinase domain, but lacks the region of the tail containing the tail site and the HM as well as the C-terminal autoinhibitory domain, was expressed and purified from COS7 cells, either non-phosphorylated or phosphorylated at T221 in the activation loop, achieved by co-expression with PDK1. Purified S6K11-364 was then incubated with synthetic peptides of the S6K1 tail (residues 366-395: QTPVDS^371PDDSTLSESANQVFLGFT^389YVAPSV), which were either non-phosphorylated (S371/T389), phosphorylated at the tail site (pS371/T389), phosphorylated in the HM (S371/pT389) or phosphorylated at both sites (pS371/pT389). Subsequently, the kinase activity of S6K11-364 was determined.
# Kinase assays for PKB, RSK, S6K, MSK were done as described previously (Frodin et al., 2002). […] After washing with 150 mM orthophosphoric acid, [^32P]phosphate incorporated into peptide substrate was quantified in an FLA-3000 apparatus (Fujifilm). […]
# T1 sequence (P67999 24-387): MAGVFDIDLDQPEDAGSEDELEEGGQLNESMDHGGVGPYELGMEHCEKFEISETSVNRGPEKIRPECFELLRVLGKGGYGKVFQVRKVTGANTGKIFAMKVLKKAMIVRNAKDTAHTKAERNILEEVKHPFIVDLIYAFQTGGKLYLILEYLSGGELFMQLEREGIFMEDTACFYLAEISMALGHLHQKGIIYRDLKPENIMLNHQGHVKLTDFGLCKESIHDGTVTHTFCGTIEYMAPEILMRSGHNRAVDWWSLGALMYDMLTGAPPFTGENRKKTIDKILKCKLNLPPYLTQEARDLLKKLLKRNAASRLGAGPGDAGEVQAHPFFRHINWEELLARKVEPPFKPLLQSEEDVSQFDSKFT
substance,measurement,setting,value
pS371/T389: synthetic S6K1 tail peptide (residues 366-395) phosphorylated at the tail site,decrease of binding of S6K11-365 to peptide by the K144N mutation,GST-S6K11-365,about 40%
same,stimulation of kinase activity (in words),[1],did not stimulate
